Source: paper PMC12298624, “Anti-Infective Properties, Cytotoxicity, and In Silico ADME Parameters of Novel 4′-(Piperazin-1-yl)benzanilides” (Pharmaceuticals, 2025)
Read-outs that look alike come from different tables or passages of the source.

Legend:
[1] = test system: P. falciparum NF54; parameters: method as in PMID 34832891, PMID 36558954; conditions: Figure 1, earlier studies; ref [12],[13]; read-out: PfNF54 IC50; cited from earlier work
[2] = test system: P. falciparum NF54; assay: In vitro microplate assay against P. falciparum NF54 (3H-hypoxanthine incorporation); type: cell-based, Plasmodium falciparum; conditions: Plasmodium falciparum, NF54, chloroquine-sensitive strain NF54, erythrocytic stages; read-out: P.f.NF54 IC50
Procedure: Serial drug dilutions of eleven 3-fold dilution steps covering a range from 100 to 0.002 µg/mL were prepared. […] After 48 h of incubation time, 0.05 mL of ^3H-hypoxanthine (=0.5 µCi) was added to each well of the plate. The plates were incubated for a further 24 h under the same conditions. Plates were then harvested using a BetaplateTM cell harvester (Wallac, Zurich, Switzerland). Red blood cells were transferred onto a glass fiber filter and then washed with distilled aqua demin. The dried filters were inserted into a plastic foil with 10 mL of scintillation fluid and counted in a BetaplateTM liquid scintillation counter (Wallac, Zurich, Switzerland). IC50 values were calculated from sigmoidal inhibition curves by linear regression using Microsoft Excel. […] Louis, MO, USA) was used as control.

[3] = Resazurin-based in vitro cytotoxicity with L-6 cells; type: cell-based, rat; conditions: rat
Procedure: Serial drug dilutions of eleven 3-fold dilution steps covering a range from 100 to 0.002 µg/mL were prepared. After 70 h of incubation, the plates were inspected under an inverted microscope to assure growth of the controls and sterile conditions. […] The plates were read with a Spectramax Gemini XS microplate fluorometer (Molecular Devices Cooperation, Sunnyvale, CA, USA) using an excitation wavelength of 536 nm and an emission wavelength of 588 nm. IC50 values were calculated by linear regression from the sigmoidal dose–inhibition curves using SoftmaxPro software Version 8.2.1 (Molecular Devices Cooperation, Sunnyvale, CA, USA). Podophyllotoxin (Sigma P4405) was used as control.

[4] = Resazurin-based in vitro cytotoxicity with HepG2 cells; type: cell-based, human; conditions: HepG2 cells; human hepatocarcinoma cells, 48 h
Procedure: The HepG2 cells were washed with DPBS (Dulbecco’s PBS without calcium and magnesium, Gibco, Cat #21600-044) and trypsinized with trypsin solution in DPBS. Trypsinization was stopped by adding culture medium, and after being stained with Trypan Blue (SORS Ukraine) cells were counted using a counting chamber (Hausser Scientific, Cat #3500). The cell suspension was placed in a falcon tube containing plating medium DMEM/High glucose with 1% fetal bovine serum, 100 units/mL penicillin, and 100 µg/mL streptomycin. Cells at a density of 250,000 cells/mL were seeded in sterile 384-well plates (Greiner Bio-One, Cat #781091) in a volume of […] and incubated at 37 °C and 5% CO2. Serial dilutions of ten 3-fold dilution steps of test and reference compounds covering a range from 100.0 to 0.005 µM were added to the wells, followed by incubation at 37 °C and 5% CO2 for 48 h. Then, resazurin (50 µM final concentration) was added and plates were incubated for another 3 h. The plates were read with a SpectraMax microplate reader (Molecular Devices Cooperation, Sunnyvale, CA, USA)) using an extinction wavelength of 555 nm and an emission wavelength of 570 nm. IC50 values were calculated using GraphPad Prism 9.0 charting software. Doxorubicin (Sigma Aldrich D1515) was used as control.

[5] = test system: K. pneumoniae ATCC 700603; assay: MIC/MBC microbroth dilution (EUCAST); type: cell-based; conditions: Klebsiella pneumoniae, ATCC700603
Procedure: (§1) Minimum inhibitory concentrations (MIC values) were obtained using the microbroth dilution method as stated in the EUCAST guidelines. Tests were conducted on cation adjusted Mueller–Hinton broth (caMHB) or agar (caMHA). These were prepared and stored following the manufacturer’s guidelines. Biological organisms were prepared via growth on either Luria–Bertani (LB) or cation adjusted Mueller–Hinton agar plates. These were grown for 24 h at 37 °C, except for Micrococcus luteus where MICs took longer to grow and as a consequence were read after 48 h once a clear positive control could be observed. For the MIC experiment, the bacteria were prepared using the McFarland 0.5 standard and diluted 1 in 100 or 1 in 10 in caMHB following EUCAST and CSLI guidelines for the preparation of bacteria. Testing of the compounds using the microbroth dilution method took place in 96-well plates. Serial 2-fold dilutions of compounds in caMHB covering a range from 256 µg/mL to 0.25 µg/mL were prepared. Bacteria preparations (McFarland) were added to the compound dilutions, further halving the compound concentrations. The plate was then incubated for 18 h at 37 °C. Controls for the MIC experiments included a bacterial growth (positive) control of bacteria and caMHB only and a media only (negative) control. After incubation, the plates were read, whereby the positive control of bacteria was visible and the negative control was clear of contamination. The last clear well, where there is no growth of bacteria, was counted as the MIC value. […] The lowest concentration without any bacterial growth was counted as the MBC value. The following pathogens were used: Pseudomonas aeruginosa NCTC 13437, Escherichia coli NCTC 13353, Bacillus subtilis 168a, Serratia marcescens NCTC 9940, Micrococcus luteus ATCC 10240, Staphylococcus aureus JE2 USA 300, Acinetobacter baumannii ATCC 19606, and Klebsiella pneumoniae ATCC 700603. A concentration range of 256 µg/mL to 0.25 µg/mL of a combination of ciprofloxacin and meropenem against E. coli 25922 was used as an antibiotic control to ensure correct dilution and performance of the assay.

[6] = test system: P. aeruginosa NCTC 13437; assay: MIC/MBC microbroth dilution (EUCAST); type: cell-based; conditions: Pseudomonas aeruginosa, NCTC13437
Procedure: as §1

[7] = test system: S. aureus JE2 USA 300; assay: MIC/MBC microbroth dilution (EUCAST); type: cell-based; conditions: Staphylococcus aureus, USA300, S. aureus JE2 USA 300
Procedure: as §1

[8] = test system: S. marcescens NCTC 9940; assay: MIC/MBC microbroth dilution (EUCAST); type: cell-based; conditions: Serratia marcescens, NCTC9940
Procedure: as §1

[9] = test system: E. coli NCTC 13353; assay: MIC/MBC microbroth dilution (EUCAST); type: cell-based, Escherichia coli; conditions: Escherichia coli; for MBC: NCTC13353; for MIC: NCTC13353, read-out: MIC
Procedure: as §1

[10] = test system: A. baumannii ATCC 19606; assay: MIC/MBC microbroth dilution (EUCAST); type: cell-based, Acinetobacter baumannii; conditions: Acinetobacter baumannii; for MBC: ATCC19606; for MIC: ATCC19606, read-out: MIC
Procedure: as §1

[11] = test system: B. subtilis 168a; assay: MIC/MBC microbroth dilution (EUCAST); type: cell-based, Bacillus subtilis; conditions: Bacillus subtilis, 168A; for MIC: read-out: MIC
Procedure: as §1

[12] = test system: M. luteus ATCC 10240; assay: MIC/MBC microbroth dilution (EUCAST); type: cell-based, Micrococcus luteus; conditions: Micrococcus luteus, ATCC10240, M. luteus ATCC 10240; for MBC: read-out: MBC; for MIC: read-out: MIC
Procedure: as §1

[13] = Parallel artificial membrane permeability assay (PAMPA); conditions: PAMPA, pH 7.4, Pe, PBS pH 7.4, 200 µM, 5 h, room temperature
Procedure: With the high-throughput PAMPA the newly synthesized compounds were tested for their passive permeability through cell membranes without the influence of efflux pumps or transporter proteins. The assay was performed using a Corning® Gentest^TM Precoated PAMPA Plate System (Corning, Glendale, AZ, USA) with 96-well polystyrene plates. The bottom of the acceptor plate consists of a porous membrane, whereby the pores are lined with a lipid–oil–lipid triple layer. Stock solutions of each test compound at 10 mM were prepared in DMSO or methanol and diluted with phosphate-buffered saline (PBS at a pH of 7.4) to a final concentration of 200 µM. […] The donor plate (bottom plate) was filled with the compound solutions, whereby all compounds were tested in quadruplicates. Each well of the acceptor plate (top plate) was filled with PBS buffer. Donor and acceptor plates were combined and incubated at room temperature for 5 h. After that, the plates were separated and 150 µL of each well of both plates were transferred to 96-well UV plates (Greiner Bio-One). Absorption at different wavelengths covering a range from 200 to 300 nm was measured using a SpectraMax M3 UV plate reader. […] The plates were analyzed at the wavelength where the R2 value of the calibration curve was higher than 0.99 [47].
Recovery of compounds from donor and acceptor wells (mass retention) was calculated as shown in the equation below. Data were only accepted when recovery exceeded 70%. The equation is as follows:(3) R=1−[cDt×VD+cAt×VA]/(c0×VD) where

| Compound | IC50 [1] | IC50 [2] | IC50 at 70 h [3] | IC50 at 48 h [4] | MBC [5] | MIC [5] | MBC [6] | MIC [6] | MBC [7] | MIC [7] | MBC [8] | MIC [8] | MBC [9] | MIC [9] | MBC [10] | MIC [10] | MBC [11] | MIC [11] | MBC [12] | MIC [12] | further results |
| --- | --- | --- | --- | --- | --- | --- | --- | --- | --- | --- | --- | --- | --- | --- | --- | --- | --- | --- | --- | --- | --- |
| CC(C)(C)OC(=O)N1CCN(c2ccccc2NC(=O)c2cccc(C(F)(F)F)c2Oc2ccc(F)cc2)CC1 [MMV030666, tert-Butyl-4-{2-[2-(4-fluorophenoxy)-3-(trifluoromethyl)benzamido]phenyl}pipera-zine-1-carboxylate] | 0.41 µM |  |  |  |  |  |  |  |  |  |  |  |  |  |  |  |  |  |  |  |  |
| CC(C)(C)OC(=O)N1CCN(c2ccc(NC(=O)c3cccc(C(F)(F)F)c3Nc3ccc(F)cc3)cc2)CC1 [derivate IV] | 0.54 µM |  |  |  |  |  |  |  |  |  |  |  |  |  |  |  |  |  |  |  |  |
| O=C(Nc1ccc(N2CCNCC2)cc1)c1cccc([N+](=O)[O-])c1Oc1ccc(F)cc1 [Compound 61, 2-(4-Fluorophenoxy)-3-nitro-N-[4-(piperazin-1-yl)phenyl]benzamide] |  | 4.1 µM | 43.8 µM | 29.8 µM | > 256 µg/mL | 256 µg/mL | > 256 µg/mL | > 256 µg/mL | > 256 µg/mL | 128 µg/mL | > 256 µg/mL | > 256 µg/mL | > 256 µg/mL | > 256 µg/mL | > 256 µg/mL | 256 µg/mL | > 256 µg/mL | 256 µg/mL | 128 µg/mL | 128 µg/mL | Papp at 5 h, 200 µM [13]: 8.36 ×10⁻⁶ cm/s |
| O=C(c1cccc(C(F)(F)F)c1Oc1ccc(F)cc1)N1CCOCC1 [Compound 51, [2-(4-Fluorophenoxy)-3-(trifluoromethyl)phenyl](morpholin-4-yl)methanon] |  | 81.1 µM | 154 µM | > 100 µM | > 256 µg/mL | > 256 µg/mL | > 256 µg/mL | > 256 µg/mL | > 256 µg/mL | > 256 µg/mL | > 256 µg/mL | > 256 µg/mL | > 256 µg/mL | > 256 µg/mL | 256 µg/mL | 256 µg/mL | > 256 µg/mL | 256 µg/mL | 128 µg/mL | 256 µg/mL | Papp at 5 h, 200 µM [13]: 10.4 ×10⁻⁶ cm/s |
